Where “and” joins values, the source holds several entries; their conditions need not be identical. Identical values can stand only once. Entries after “also recorded” stand apart in the source; their conditions may differ. Like-named read-outs stand apart in the source and are kept apart here.
Key:
M. tuberculosis H37Rv [1] = assay: M. tuberculosis H37Rv inhibition assays (MIC); assay type: cell-based, Mycobacterium tuberculosis; settings: for MIC: M. tuberculosis H37Rv
mtFabH [2] = target: T1, mtFabH (Mycobacterium tuberculosis, UniProt P9WNG3); assay: mtFabH inhibition assay; assay type: biochemical
T1 sequence (P9WNG3 2-335): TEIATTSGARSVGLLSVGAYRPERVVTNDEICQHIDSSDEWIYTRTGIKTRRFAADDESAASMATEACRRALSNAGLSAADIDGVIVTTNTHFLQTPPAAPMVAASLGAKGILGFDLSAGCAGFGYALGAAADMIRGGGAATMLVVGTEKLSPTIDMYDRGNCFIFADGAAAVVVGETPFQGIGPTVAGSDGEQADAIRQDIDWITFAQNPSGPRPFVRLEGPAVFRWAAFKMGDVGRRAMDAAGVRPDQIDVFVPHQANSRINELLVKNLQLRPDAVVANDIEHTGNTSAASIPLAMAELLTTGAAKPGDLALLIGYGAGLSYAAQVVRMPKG

FAS-II = FAS-II assay; assay type: biochemical
Experimental: (§1) The molecules under investigation were designed to inhibit mtFabH in the mycobacterial FAS-II system, with selectivity over the related mammalian FAS-I system. To examine selectivity, the compounds were assessed using the procedures of Brown et al. and Slayden et al..
(§2) FAS-I and FAS-II experiments were conducted as per Slayden et al. (1996) using the 40–80% ammonium sulphate fraction. The standard reaction mixture for the incorporation of radioactivity from [2-^14C]malonyl-CoA into C16 to C24 fatty acids catalysed by FAS-I was composed as follows: 100 mM Tris.HCl pH 7.9, 5 mM EDTA, 5 mM dithiothreitol, 300 µM acetyl-CoA, 100 µM NADPH, 100 µM NADH, 1 µM flavin mononucleotide, 500 µM α-cyclodextrin, 300 µM CoA-SH, 100,000 cpm of [2-^14C] malonyl-CoA (specific activity 53 Ci/mol), test compound (0.5–200 µg/ml) and 2 mg of cytosolic enzyme preparation in a total volume of 500 µl. Similarly, the standard reaction mixture for incorporation of radioactivity from [2-^14C]malonyl-CoA into C24 to C30 fatty acids catalysed by FAS-II contained the following: 100 mM potassium phosphate buffer (pH 7.0), 5 mM EDTA, 5 mM dithiothreitol, 10 µM palmitoyl-CoA, 140 µM NADPH, 140 µM NADH, 100 µg of AcpM, 40 µM malonyl-CoA, 200,000 cpm of [2-^14C]malonyl-CoA (specific activity 53 Ci/mol), test compound (0.5–200 µg/ml) and 200 mg of cytosolic enzyme preparation in a total volume of 250 µl. In both the FAS-I and FAS-II assays, reactions were performed in triplicate at 37°C for 30 min and terminated by the addition of 250 µl of 20% potassium hydroxide in 50% methanol at 100°C for 45 min. Following acidification with 150 µl of 6 M HCl, the resultant ^14C-labelled fatty acids were extracted three times with petroleum ether. The organic extracts were pooled, washed once with an equal volume of water, and dried in a scintillation vial prior to counting.

[3] = no reference given; cited from earlier work
M. tuberculosis H37Rv [4] = settings: cited from earlier work
[5] = mouse model; no reference given; cited from earlier work
FAS-I = FAS-I assay; assay type: biochemical
Experimental: as §1
as §2, with “In both the FAS-I and FAS-II assays, reactions were performed in triplicate at 37°C for 30 min and terminated by the addition of 250 µl of 20% potassium hydroxide in 50% methanol at 100°C for 45 min. Following acidification with 150 µl of 6 M HCl, the resultant ^14C-labelled fatty acids were extracted three times with petroleum ether. The organic extracts were pooled, washed once with an equal volume of water, and dried in a scintillation vial prior to counting.” left out

mtFabH [6] = target: T1, mtFabH; settings: cited from earlier work
[7] = Mycobacterium tuberculosis, read-out: TB MIC
[8] = N/A = no inhibition observed at 200 µg/ml, read-out: mtFabH IC50 (class N/A)
[9] = Mycobacterium tuberculosis, N/A = no inhibition observed at 200 µg/ml, read-out: TB MIC (class N/A)
[10] = read-out: mtFabH IC50 (converted)

| SMILES | inhibition of M. tuberculosis H37Rv (in words) (M. tuberculosis H37Rv [1]) | melting point [°C] | IC50 (mtFabH [2]; [8]) [µM] | MIC (M. tuberculosis H37Rv [1]; [9]) [µg/mL] | inhibition of mtFabH (in words) (mtFabH [2]) | other results |
| --- | --- | --- | --- | --- | --- | --- |
| Nc1nc(C(=O)O)c(-c2cccc(Cl)c2)s1 [Compound 11, 2-amino-5-(3-chlorophenyl)thiazole-4-carboxylic acid] | active | 242 to 244 | > 785 | – | – | MIC (M. tuberculosis H37Rv [1]; [7]): 32 µg/mL and 125 µM |
| O=C(CBr)Nc1nc(C(=O)O)c(-c2ccccc2)s1 [Compound 17, 2-(2-Bromoacetamido)-5-phenylthiazole-4-carboxylic acid] | – | 208 to 210 | > 586 | > 200 | failed to inhibit | – |
| Cc1sc(NC(=O)CBr)nc1C(=O)O [Compound 16, 2-(2-Bromoacetamido)-5-methylthiazole-4-carboxylic acid] | – | 218 to 220 | > 717 | > 200 | failed to inhibit | – |
| COC(=O)c1nc(NC(=O)CBr)sc1-c1cccc(Cl)c1 [Compound 3, methyl 2-(2-bromoacetamido)-5-(3-chlorophenyl)thiazole-4-carboxylate] | not active | – | – | > 200 | active against mtFabH | inhibition of FAS-II (in words) (FAS-II): selective against FAS-II; IC50 (mtFabH [2]; [10]): 2.44 µM and 2.43 µM |
| Nc1nc(C(=O)O)c(Cc2ccccc2)s1 [Compound 12, 2-amino-5-benzylthiazole-4-carboxylic acid] | inactive | 300 to 302 | > 854 | > 200 | – | – |
| COC(=O)c1nc(NC(=O)CBr)sc1C [Compound 13, Methyl 2-(2-bromoacetamido)-5-methylthiazole-4-carboxylate] | – | 220 to 222 | > 682 | > 200 | fails to inhibit | – |
| COC(=O)c1nc(N)sc1C [Compound 6, Methyl 2-amino-5-methylthiazole-4-carboxylate] | – | 165 to 168 | > 1160 | – | – | MIC (M. tuberculosis H37Rv [1]; [7]): 16 µg/mL and 93 µM |
| O=C(CBr)Nc1nc(C(=O)O)c(-c2cccc(Cl)c2)s1 [Compound 18, 2-(2-Bromoacetamido)-5-(3-chlorophenyl)thiazole-4-carboxylic acid] | – | 228 to 230 | > 532 | > 200 | failed to inhibit; also recorded: inactive | – |
| COC(=O)c1nc(N)sc1-c1ccccc1 [Compound 7, Methyl 2-amino-5-phenylthiazole-4-carboxylate] | inactivity | 218 to 221 | > 854 | > 200 | – | – |
| Cc1sc(N)nc1C(=O)O [Compound 9, 2-amino-5-methylthiazole-4-carboxylic acid] | – | – | > 1260 | – | – | MIC (M. tuberculosis H37Rv [1]; [7]): 0.06 µg/mL and 0.35 µM |
| COC(=O)c1nc(N)sc1Cc1ccccc1 [Compound 2, methyl 2-amino-5-benzylthiazole-4-carboxylate] | – | – | > 805 | – | no activity | MIC (M. tuberculosis H37Rv [1]; read-out: TB MIC): 0.24 µM; MIC (M. tuberculosis H37Rv [1]; [7]): 0.06 µg/mL and 0.24 µM |
| NNC(=O)c1ccncc1 [INH, isoniazid] | – | – | – | – | – | logP [3]: −1.1; MIC (M. tuberculosis H37Rv [4]): 0.25 µg/ml and 1.8 µM |
| C=C/C(C)=C/[C@@]1(C)SC(=O)C(C)=C1O [1 (TLM), thiolactomycin] | – | – | – | – | – | oral availability [5]: orally available; toxicity [5]: non-toxic; MIC (M. tuberculosis H37Rv [4]; listed as TLM): 13 µg/ml and 62.5 µM |
| O=C(CBr)Nc1nc(C(=O)O)c(Cc2ccccc2)s1 [Compound 19, 5-Benzyl-2-(2-bromoacetamido)thiazole-4-carboxylic acid] | – | 220 to 222 | – | > 200 | – | inhibition of FAS-II (in words) (FAS-II): inhibited both FAS-I and FAS-II; inhibition of FAS-I (in words) (FAS-I): inhibited both FAS-I and FAS-II; IC50 (mtFabH [2]; [10]): 633 µM and 718 µM |
| CC1=C(O)C(C)(Cc2ccc(-c3ccc(C(=O)O)cc3)cc2)SC1=O (centres unmarked) [Compound 4] | – | – | – | – | – | IC50 (mtFabH [6]): 3.1 µM and 3 µM |
| COC(=O)c1nc(NC(=O)CBr)sc1-c1ccccc1 [Compound 14, Methyl 2-(2-bromoacetamido)-5-phenylthiazole-4-carboxylate] | – | 218 to 220 | – | > 200 | active against mtFabH | inhibition of FAS-II (in words) (FAS-II): selective against FAS-II; IC50 (mtFabH [2]; [10]): 3.1 µM and 3.22 µM |
| COC(=O)c1nc(NC(=O)CBr)sc1Cc1ccccc1 [Compound 15, Methyl 5-benzyl-2-(2-bromoacetamido)thiazole-4-carboxylate] | – | 218 to 220 | – | > 200 | – | inhibition of FAS-II (in words) (FAS-II): failed to inhibit the FAS enzymes; inhibition of FAS-I (in words) (FAS-I): failed to inhibit the FAS enzymes; IC50 (mtFabH [2]; [10]): 160 µM |
| Nc1nc(C(=O)O)c(-c2ccccc2)s1 [Compound 10, 2-amino-5-phenylthiazole-4-carboxylic acid] | inactive | 242 to 243 | > 908 | > 200 | – | – |
| COC(=O)c1nc(N)sc1-c1cccc(Cl)c1 [Compound 8, Methyl 2-amino-5-(3-chlorophenyl)thiazole-4-carboxylate] | inactive | 229 to 232 | > 744 | > 200 | – | – |
